According to ChEMBL document CHEMBL3593218, “4,6-Substituted-1,3,5-triazin-2(1H)-ones as monocyclic catalytic inhibitors of human DNA topoisomerase IIα targeting the ATP binding site” (Bioorg Med Chem, 2015):
Where “and” joins values, the source holds several entries; their conditions need not be identical. Equal entries are not always repeated. One block for each compound: values may come before it.

Experiments:
[1] = target: T1, DNA topoisomerase 2-alpha (Homo sapiens, UniProt P11388); experiment: Inhibition of human DNA topoisomerase IIalpha using plasmid pNO1 as a substrate after 30 mins
[2] = target: T1, DNA topoisomerase 2-alpha; experiment: Inhibition of human DNA topoisomerase IIalpha assessed as reduction in enzyme-catalyzed supercoiling of relaxed circular pBR322 DNA by measuring linear DNA level at 50 uM after 60 mins by agarose gel electrophoresis; parameters: scale not given: the % may be the effect or the level left
[3] = target: T1, DNA topoisomerase 2-alpha; experiment: Inhibition of human DNA topoisomerase IIalpha ATPase activity assessed as residual ATP hydrolysis at 3.9 uM measured up to 60 mins
[4] = target: T1, DNA topoisomerase 2-alpha; experiment: Inhibition of human DNA topoisomerase IIalpha assessed as reduction in enzyme-catalyzed supercoiling of relaxed circular pBR322 DNA by measuring linear DNA level at 62.5 uM after 60 mins by agarose gel electrophoresis; parameters: scale not given: the % may be the effect or the level left
[5] = target: T1, DNA topoisomerase 2-alpha; experiment: Inhibition of human DNA topoisomerase IIalpha assessed as decatenation of kDNA at 3.9 uM after 90 mins by ethidium bromide staining; parameters: scale not given: the % may be the effect or the level left
[6] = target: T1, DNA topoisomerase 2-alpha; experiment: Inhibition of human DNA topoisomerase IIalpha ATPase activity assessed as residual ATP hydrolysis at 500 uM measured up to 60 mins
[7] = target: T1, DNA topoisomerase 2-alpha; experiment: Inhibition of human DNA topoisomerase IIalpha assessed as reduction in enzyme-catalyzed supercoiling of relaxed circular pBR322 DNA by measuring linear DNA level at 31.5 uM after 60 mins by agarose gel electrophoresis; parameters: scale not given: the % may be the effect or the level left
[8] = target: T1, DNA topoisomerase 2-alpha; experiment: Inhibition of human DNA topoisomerase IIalpha assessed as decatenation of kDNA at 500 uM after 90 mins by ethidium bromide staining; parameters: scale not given: the % may be the effect or the level left
[9] = target: T1, DNA topoisomerase 2-alpha; experiment: Inhibition of human DNA topoisomerase IIalpha assessed as decatenation of kDNA at 31.5 uM after 90 mins by ethidium bromide staining; parameters: scale not given: the % may be the effect or the level left
[10] = target: T1, DNA topoisomerase 2-alpha; experiment: Inhibition of human DNA topoisomerase IIalpha ATPase activity assessed as residual ATP hydrolysis at 125 uM measured up to 60 mins
[11] = target: T1, DNA topoisomerase 2-alpha; experiment: Inhibition of human DNA topoisomerase IIalpha assessed as reduction in enzyme-catalyzed supercoiling of relaxed circular pBR322 DNA by measuring linear DNA level at 125 uM after 60 mins by agarose gel electrophoresis; parameters: scale not given: the % may be the effect or the level left
[12] = target: T1, DNA topoisomerase 2-alpha; experiment: Inhibition of human DNA topoisomerase IIalpha ATPase activity assessed as residual ATP hydrolysis at 31.5 uM measured up to 60 mins
[13] = target: T1, DNA topoisomerase 2-alpha; experiment: Inhibition of human DNA topoisomerase IIalpha assessed as reduction in enzyme-catalyzed supercoiling of relaxed circular pBR322 DNA by measuring linear DNA level at 500 uM after 60 mins by agarose gel electrophoresis; parameters: scale not given: the % may be the effect or the level left
[14] = target: T1, DNA topoisomerase 2-alpha; experiment: Inhibition of human DNA topoisomerase IIalpha assessed as decatenation of kDNA at 125 uM after 90 mins by ethidium bromide staining; parameters: scale not given: the % may be the effect or the level left
[15] = target: T1, DNA topoisomerase 2-alpha; experiment: Inhibition of human DNA topoisomerase IIalpha assessed as reduction in enzyme-catalyzed supercoiling of relaxed circular pBR322 DNA by measuring linear DNA level at 3.9 uM after 60 mins by agarose gel electrophoresis; parameters: scale not given: the % may be the effect or the level left
[16] = target: T1, DNA topoisomerase 2-alpha; experiment: Inhibition of human DNA topoisomerase IIalpha assessed as decatenation of kDNA after 90 mins by ethidium bromide staining
[17] = target: T1, DNA topoisomerase 2-alpha; experiment: Inhibition of human DNA topoisomerase IIalpha assessed as reduction in enzyme-catalyzed supercoiling of relaxed circular pBR322 DNA by measuring linear DNA level at 500 uM after 60 mins by agarose gel electrophoresis in presence of 62.5 uM of etoposide; parameters: scale not given: the % may be the effect or the level left
[18] = target: T1, DNA topoisomerase 2-alpha; experiment: Inhibition of human DNA topoisomerase IIalpha assessed as reduction in enzyme-catalyzed supercoiling of relaxed circular pBR322 DNA by measuring linear DNA level at 15.625 uM after 60 mins by agarose gel electrophoresis; parameters: scale not given: the % may be the effect or the level left
[19] = target: T1, DNA topoisomerase 2-alpha; experiment: Inhibition of human DNA topoisomerase IIalpha assessed as reduction in enzyme-catalyzed supercoiling of relaxed circular pBR322 DNA by measuring linear DNA level at 125 uM after 60 mins by agarose gel electrophoresis in presence of 50 uM of etoposide; parameters: scale not given: the % may be the effect or the level left
[20] = target: T1, DNA topoisomerase 2-alpha; experiment: Inhibition of human DNA topoisomerase IIalpha assessed as reduction in enzyme-catalyzed supercoiling of relaxed circular pBR322 DNA by measuring linear DNA level at 125 uM after 60 mins by agarose gel electrophoresis in presence of 62.5 uM of etoposide; parameters: scale not given: the % may be the effect or the level left
[21] = Lipophilicity, log P of the compound; format: physicochemical; conditions: octanol/water
[22] = target: T1, DNA topoisomerase 2-alpha; experiment: Inhibition of human DNA topoisomerase IIalpha assessed as reduction in enzyme-catalyzed supercoiling of relaxed circular pBR322 DNA by measuring linear DNA level after 60 mins by agarose gel electrophoresis
[23] = target: T1, DNA topoisomerase 2-alpha; experiment: Inhibition of human DNA topoisomerase IIalpha assessed as reduction in enzyme-catalyzed supercoiling of relaxed circular pBR322 DNA by measuring linear DNA level at 3.9 uM after 60 mins by agarose gel electrophoresis in presence of 62.5 uM of etoposide; parameters: scale not given: the % may be the effect or the level left
[24] = target: T1, DNA topoisomerase 2-alpha; experiment: Inhibition of human DNA topoisomerase IIalpha assessed as reduction in enzyme-catalyzed supercoiling of relaxed circular pBR322 DNA by measuring linear DNA level at 3.9 uM after 60 mins by agarose gel electrophoresis in presence of 50 uM of etoposide; parameters: scale not given: the % may be the effect or the level left
[25] = target: T1, DNA topoisomerase 2-alpha; experiment: Inhibition of human DNA topoisomerase IIalpha assessed as reduction in enzyme-catalyzed supercoiling of relaxed circular pBR322 DNA by measuring linear DNA level at 500 uM after 60 mins by agarose gel electrophoresis in presence of 50 uM of etoposide; parameters: scale not given: the % may be the effect or the level left
[26] = target: T1, DNA topoisomerase 2-alpha; experiment: Inhibition of human DNA topoisomerase IIalpha assessed as reduction in enzyme-catalyzed supercoiling of relaxed circular pBR322 DNA by measuring linear DNA level at 31.5 uM after 60 mins by agarose gel electrophoresis in presence of 62.5 uM of etoposide; parameters: scale not given: the % may be the effect or the level left
[27] = target: T1, DNA topoisomerase 2-alpha; experiment: Inhibition of human DNA topoisomerase IIalpha assessed as reduction in enzyme-catalyzed supercoiling of relaxed circular pBR322 DNA by measuring linear DNA level at 31.5 uM after 60 mins by agarose gel electrophoresis in presence of 50 uM of etoposide; parameters: scale not given: the % may be the effect or the level left
[28] = target: T1, DNA topoisomerase 2-alpha; experiment: Inhibition of human DNA topoisomerase IIalpha ATPase activity assessed as residual ATP hydrolysis at 15.625 uM measured up to 60 mins
[29] = target: T1, DNA topoisomerase 2-alpha; experiment: Inhibition of human DNA topoisomerase IIalpha ATPase activity assessed as residual ATP hydrolysis at 62.5 uM measured up to 60 mins
[30] = target: T1, DNA topoisomerase 2-alpha; experiment: Inhibition of human DNA topoisomerase IIalpha assessed as decatenation of kDNA at 15.625 uM after 90 mins by ethidium bromide staining; parameters: scale not given: the % may be the effect or the level left
[31] = target: T1, DNA topoisomerase 2-alpha; experiment: Inhibition of human DNA topoisomerase IIalpha assessed as decatenation of kDNA at 62.5 uM after 90 mins by ethidium bromide staining; parameters: scale not given: the % may be the effect or the level left

T1 sequence (P11388 whole entry): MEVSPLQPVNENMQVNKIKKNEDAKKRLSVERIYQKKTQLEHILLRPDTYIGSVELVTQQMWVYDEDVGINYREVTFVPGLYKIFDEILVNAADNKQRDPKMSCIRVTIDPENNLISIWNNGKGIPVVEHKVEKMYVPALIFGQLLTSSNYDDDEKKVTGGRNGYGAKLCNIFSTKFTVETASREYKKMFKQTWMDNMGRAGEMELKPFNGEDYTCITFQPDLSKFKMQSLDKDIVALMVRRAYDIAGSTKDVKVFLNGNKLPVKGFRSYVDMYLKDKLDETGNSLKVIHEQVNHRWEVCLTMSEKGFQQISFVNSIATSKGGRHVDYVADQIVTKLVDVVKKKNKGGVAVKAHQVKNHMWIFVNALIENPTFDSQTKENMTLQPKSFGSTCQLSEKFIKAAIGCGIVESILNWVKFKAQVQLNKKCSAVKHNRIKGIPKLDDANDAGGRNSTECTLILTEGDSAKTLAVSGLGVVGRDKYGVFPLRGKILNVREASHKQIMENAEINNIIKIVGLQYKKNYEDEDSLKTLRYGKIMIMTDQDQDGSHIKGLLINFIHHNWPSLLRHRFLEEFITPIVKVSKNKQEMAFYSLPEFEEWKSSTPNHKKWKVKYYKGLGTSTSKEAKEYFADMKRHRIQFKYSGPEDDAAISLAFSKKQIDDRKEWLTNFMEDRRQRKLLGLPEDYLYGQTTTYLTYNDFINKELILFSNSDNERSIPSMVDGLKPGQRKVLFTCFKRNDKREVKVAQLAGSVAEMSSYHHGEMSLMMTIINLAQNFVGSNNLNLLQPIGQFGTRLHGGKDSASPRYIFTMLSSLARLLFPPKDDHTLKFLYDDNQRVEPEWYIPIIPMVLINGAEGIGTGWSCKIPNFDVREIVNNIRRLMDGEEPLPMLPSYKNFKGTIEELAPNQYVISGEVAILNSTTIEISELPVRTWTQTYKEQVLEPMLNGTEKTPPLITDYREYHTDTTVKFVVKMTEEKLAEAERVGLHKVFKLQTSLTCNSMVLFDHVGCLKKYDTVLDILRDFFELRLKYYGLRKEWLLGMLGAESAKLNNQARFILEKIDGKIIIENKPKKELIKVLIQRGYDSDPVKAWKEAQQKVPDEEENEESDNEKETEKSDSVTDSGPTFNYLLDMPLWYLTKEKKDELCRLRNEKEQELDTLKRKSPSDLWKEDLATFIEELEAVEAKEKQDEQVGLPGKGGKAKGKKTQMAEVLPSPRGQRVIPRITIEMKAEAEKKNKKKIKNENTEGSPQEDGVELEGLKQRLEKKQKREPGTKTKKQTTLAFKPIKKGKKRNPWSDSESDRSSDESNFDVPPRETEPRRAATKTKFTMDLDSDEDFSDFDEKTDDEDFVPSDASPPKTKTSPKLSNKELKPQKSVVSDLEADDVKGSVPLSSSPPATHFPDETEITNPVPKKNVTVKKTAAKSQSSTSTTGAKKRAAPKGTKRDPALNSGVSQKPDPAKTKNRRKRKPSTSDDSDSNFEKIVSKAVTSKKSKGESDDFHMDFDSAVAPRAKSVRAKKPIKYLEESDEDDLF

SMILES: Nc1ccc(-c2nc(=S)[nH]c(=O)[nH]2)cc1
IC50 [1]: > 1000 µM

SMILES: CC(C)(C)c1ccccc1Nc1nc(Cl)nc(Cl)n1
IC50 [1]: > 1000 µM

SMILES: COc1nc(Nc2ccccc2C(=O)O)nc(OC)n1
IC50 [1]: > 1000 µM

SMILES: COc1ccc(CCNc2nc(Cl)nc(Cl)n2)cc1OC
IC50 [1]: > 1000 µM

SMILES: COc1nc(N[C@H](CCC(=O)OCc2ccccc2)C(=O)OCc2ccccc2)nc(OC)n1
IC50 [1]: > 1000 µM

SMILES: O=C(O)c1ccccc1Sc1nc(Cl)nc(Cl)n1
IC50 [1]: > 1000 µM

SMILES: COc1cc([C@@H]2c3cc4c(cc3[C@@H](O[C@@H]3O[C@@H]5CO[C@@H](C)O[C@H]5[C@H](O)[C@H]3O)[C@H]3COC(=O)[C@H]23)OCO4)cc(OC)c1O
Activity [2]: 34.6%
Activity [3]: 65.4%
Activity [4]: 18.1%
Activity [5]: 88.3%
Activity [6]: 18.7%
Activity [7]: 34.3%
Activity [8]: 3.25%
Activity [9]: 68.8%
Activity [10]: 31.8%
Activity [11]: 36.1%
Activity [12]: 45.8%
Activity [13]: 32.5%
Activity [14]: 14.2%
Activity [15]: 12.4%

SMILES: Clc1nc(Cl)nc(Nc2ccccc2Br)n1
IC50 [1]: > 1000 µM

SMILES: CC(C(C)N1CC(=O)NC(=O)C1)N1CC(=O)NC(=O)C1 (stereo unspecified)
Activity [3]: 0%
Activity [4]: 2.1%
Activity [5]: 77.4%
Activity [6]: 0% and 18.7%
Activity [7]: 2.51%
Activity [28]: 0%
Activity [18]: 3.1%
Activity [29]: 0%
Activity [30]: 18.2%
Activity [31]: 6.05%
Activity [9]: 10.8%
Activity [12]: 0%
Activity [15]: 1.7%

SMILES: Cc1ccc(-c2nc(S)[nH]c(=O)n2)cc1
IC50 [1]: > 1000 µM

SMILES: OCCc1ccccc1Nc1nc(Cl)nc(Cl)n1
IC50 [1]: > 1000 µM

SMILES: CCc1ccccc1Nc1nc(Cl)nc(Cl)n1
IC50 [1]: > 1000 µM

Further lines, results first:

IC50 [1]: 153 µM
SMILES: N#Cc1ccc(CSc2nc(SCc3ccccc3)nc(=O)[nH]2)cc1

IC50 [1]: > 1000 µM
SMILES: O=c1nc(SCc2ccccc2)nc(S)[nH]1

IC50 [1]: > 1000 µM
SMILES: CCCSc1nc(SCc2ccccc2)[nH]c(=O)n1

IC50 [1]: > 1000 µM
SMILES: O=C1NC(SCc2ccccc2)=NC(Sc2ccccc2)N1 (stereo unspecified)

IC50 [1]: > 1000 µM
SMILES: COc1nc(OC)nc(Sc2ccccc2C(=O)N[C@H](CCC(=O)OCc2ccccc2)C(=O)OCc2ccccc2)n1

IC50 [1]: > 1000 µM
SMILES: COc1ccc(CNc2nc(Cl)nc(Nc3ccccc3CCO)n2)cc1

IC50 [1]: 235 µM
SMILES: CCCCSc1nc(SCc2ccccc2)nc(=O)[nH]1

IC50 [1]: 359 µM
SMILES: O=c1nc(SCc2ccccc2)nc(SCc2ccc([N+](=O)[O-])cc2)[nH]1

IC50 [1]: 147 µM
SMILES: O=c1nc(SCc2ccccc2)nc(SCc2ccc(F)cc2)[nH]1

IC50 [1]: > 1000 µM
SMILES: COc1ccc(CSc2nc(SCc3ccccc3)nc(=O)[nH]2)cc1

Activity [2]: 34.6%
Activity [3]: 86.9%
Activity [4]: 2.1% and 18.1%
Activity [5]: 91.5%
Activity [6]: 0%
Activity [7]: 2.3%
inhibition [16]: Dose-dependent effect
Activity [17]: 1.4%
Activity [18]: 3.1%
Activity [19]: 9.2%
Activity [8]: 0.115%
Activity [20]: 16.3%
logP [21]: 2.7
Activity [9]: 92.6%
Activity [10]: 0%
inhibition [22]: Dose-dependent effect
Activity [11]: 1.6%
Activity [23]: 20.6%
IC50 [1]: 72.5 µM
Activity [12]: 93.7%
Activity [13]: 2.3%
Activity [24]: 34.3%
Activity [14]: 8.55%
Activity [25]: 5.3%
Activity [26]: 18.5%
Activity [15]: 3%
Activity [27]: 33.5%
SMILES: O=c1nc(SCc2ccccc2)nc(SCc2ccccc2F)[nH]1

IC50 [1]: > 1000 µM
SMILES: OCCc1ccccc1Nc1nc(Cl)nc(NCc2ccccc2)n1

IC50 [1]: 219 µM
SMILES: O=c1nc(SCc2ccccc2)nc(SCc2ccc(Cl)cc2)[nH]1
